Reference: the NIST ThermoML archive (doi:10.1021/acs.jced.8b00229)
± gives the expanded uncertainty stated by the source.

Conditions: Liquid, Vibrating tube method

C=CCCC [1-pentene]
Conditions | mass density [kg/m3]
283.48 K, 100 kPa | 650.3 ± 2.1
283.48 K, 500 kPa | 650.8 ± 2.1
283.48 K, 1000 kPa | 651.6 ± 2.1
283.48 K, 3000 kPa | 654 ± 2.1
283.48 K, 70000 kPa | 708.8 ± 2.3
283.48 K, 80000 kPa | 714.8 ± 2.4
283.49 K, 5000 kPa | 656.3 ± 2.1
283.49 K, 10000 kPa | 661.8 ± 2.1
283.49 K, 15000 kPa | 666.9 ± 2.1
283.49 K, 20000 kPa | 671.7 ± 2.1
283.49 K, 25000 kPa | 676.2 ± 2.1
283.49 K, 30000 kPa | 680.4 ± 2.2
283.49 K, 35000 kPa | 684.5 ± 2.2
283.49 K, 40000 kPa | 688.4 ± 2.2
283.49 K, 45000 kPa | 692.1 ± 2.2
283.49 K, 50000 kPa | 695.7 ± 2.3
283.49 K, 55000 kPa | 699.1 ± 2.3
283.49 K, 60000 kPa | 702.5 ± 2.3
283.49 K, 90000 kPa | 720.4 ± 2.4
283.49 K, 100000 kPa | 725.7 ± 2.5
293.42 K, 100 kPa | 640.1 ± 2.1
293.42 K, 500 kPa | 640.7 ± 2.1
293.42 K, 1000 kPa | 641.4 ± 2.1
293.42 K, 3000 kPa | 644 ± 2.1
293.42 K, 5000 kPa | 646.5 ± 2.1
293.42 K, 10000 kPa | 652.4 ± 2.1
293.42 K, 40000 kPa | 680.8 ± 2.2
293.42 K, 55000 kPa | 692 ± 2.3
293.42 K, 60000 kPa | 695.5 ± 2.3
293.42 K, 70000 kPa | 702.2 ± 2.4
293.42 K, 80000 kPa | 708.3 ± 2.4
293.42 K, 90000 kPa | 714.1 ± 2.5
293.42 K, 100000 kPa | 719.6 ± 2.5
293.43 K, 15000 kPa | 657.9 ± 2.1
293.43 K, 20000 kPa | 663 ± 2.1
293.43 K, 25000 kPa | 667.8 ± 2.1
293.43 K, 35000 kPa | 676.7 ± 2.2
293.43 K, 45000 kPa | 684.7 ± 2.2
293.43 K, 50000 kPa | 688.4 ± 2.3
293.44 K, 30000 kPa | 672.3 ± 2.2
303.33 K, 100 kPa | 629.8 ± 2.1
303.33 K, 1000 kPa | 631.1 ± 2.1
303.33 K, 3000 kPa | 634 ± 2.1
303.33 K, 35000 kPa | 668.9 ± 2.2
303.34 K, 5000 kPa | 636.7 ± 2.1
303.34 K, 10000 kPa | 643.1 ± 2.1
303.34 K, 15000 kPa | 649 ± 2.1
303.34 K, 20000 kPa | 654.5 ± 2.1
303.34 K, 25000 kPa | 659.6 ± 2.1
303.34 K, 30000 kPa | 664.4 ± 2.2
303.34 K, 40000 kPa | 673.2 ± 2.2
303.34 K, 45000 kPa | 677.3 ± 2.2
303.34 K, 50000 kPa | 681.2 ± 2.3
303.34 K, 80000 kPa | 702 ± 2.4
303.34 K, 90000 kPa | 707.9 ± 2.5
303.35 K, 55000 kPa | 685 ± 2.3
303.35 K, 60000 kPa | 688.6 ± 2.3
303.35 K, 70000 kPa | 695.6 ± 2.4
303.35 K, 100000 kPa | 713.6 ± 2.5
313.27 K, 500 kPa | 620.4 ± 2.1
313.27 K, 3000 kPa | 624.5 ± 2.1
313.27 K, 5000 kPa | 627.5 ± 2.1
313.27 K, 10000 kPa | 634.4 ± 2.1
313.28 K, 1000 kPa | 621.3 ± 2.1
313.28 K, 15000 kPa | 640.8 ± 2.1
313.28 K, 20000 kPa | 646.7 ± 2.1
313.28 K, 25000 kPa | 652.1 ± 2.1
313.28 K, 30000 kPa | 657.2 ± 2.2
313.28 K, 45000 kPa | 670.8 ± 2.2
313.28 K, 50000 kPa | 674.9 ± 2.3
313.28 K, 70000 kPa | 689.9 ± 2.4
313.29 K, 35000 kPa | 661.9 ± 2.2
313.29 K, 40000 kPa | 666.6 ± 2.2
313.29 K, 55000 kPa | 678.8 ± 2.3
313.29 K, 60000 kPa | 682.6 ± 2.3
313.29 K, 80000 kPa | 696.4 ± 2.4
313.29 K, 90000 kPa | 702.6 ± 2.5
313.29 K, 100000 kPa | 708.4 ± 2.5
323.18 K, 500 kPa | 608.6 ± 2.1
323.18 K, 1000 kPa | 609.3 ± 2.1
323.18 K, 3000 kPa | 612.8 ± 2.1
323.18 K, 5000 kPa | 616.1 ± 2.1
323.19 K, 10000 kPa | 623.7 ± 2.1
323.19 K, 15000 kPa | 630.6 ± 2.1
323.19 K, 20000 kPa | 636.9 ± 2.1
323.19 K, 25000 kPa | 642.7 ± 2.1
